Here are results for 5 compounds from US5698535A, “SIN-1A cyclodextrin inclusion complexes” (priority 1994, dated 1997).

SMILES strings stand for the structures. Like-named read-outs stand apart in the source and are kept apart here.

The conditions of data set [1]: prior art; cited from earlier work.
For data set [2], the system named is rabbit platelet rich plasma. In words: Inhibition of U-46619 induced platelet aggregation in rabbit platelet rich plasma. It counts as cell-based. The procedure:
(§1) The platelet aggregation was studied in rabbit and human platelet rich plasma (J. Cardiovasc. Pharmacol. 14 suppl. 11; page 120, 1989). In each batch of platelet rich rabbit plasma 8 dose response curves were registered with the thromboxane mimetic U-46619 (0.25-4.0 μM) in the presence of 0, 10^-7, 10^-6 or 10^-5 moles of SIN-1A/βCD complex. The dose response curves were performed in random sequence.

Data set [3] has as its system human platelet rich plasma. Nature of the data set: Inhibition of U46619 induced platelet aggregation in human citrate platelet rich plasma. It counts as cell-based. As to the method:
as §1
Both amplitude and slope of the aggregation curve were evaluated.

For data set [4] the following is noted: known; SIN-1 in solid state, SIN-1A open-chain tautomer; cited from earlier work.

Usually half-life stands for the time needed for the level to fall by half in the phase considered. Turning to `CCN(CC)N(O)N=O` [DEANO, diethylamine-nitric oxide adduct], the half-life entry in data set [1] was “about 2 minutes”.

With `N=c1c[n+](N2CCOCC2)[n-]o1` [SIN-1, 3-morpholino-sydnonimine], the IC50 in data set [2] (Oryctolagus cuniculus, rabbit platelet rich plasma, U46619 4 μM, n=7, read-out: pD2 (negative logarithm of concentration producing 50% inhibition) (converted)) is 2690 nM; in data set [3] (Table 4, amplitude of aggregation curve, read-out: pD2, 50% inhibition of aggregation, amplitude (converted)), 15.8 µM; in data set [3] (Table 4, slope of aggregation curve, read-out: pD2, 50% inhibition of aggregation, slope (converted)), 14.1 µM.

Turning to `N#CCN(N=O)N1CCOCC1` [SIN-1A, N-morpholino-N-nitrosoaminoacetonitrile], in data set [4], the stability result is given as “extremely unstable”.

As to `NCCCNCCCCN(CCCN)N(O)N=O` [SPNO], the half-life in data set [1] was 39 min.

Turning to `CCCCCC(O)/C=C/C1C2CC(CO2)C1C/C=C\CCCC(=O)O` (stereo not shown) [U46619], the “induction of platelet aggregation” value in data set [2] (thromboxane mimetic) is on record as “concentration-related aggregation”.
